Test results published in patent publication US10543178B2, “Dosage forms and related therapies” (PhilERA New Zealand Limited, priority 2002, dated 2020).
Several values for one entry are separate records, joined by “and”; a condition that tells them apart may be missing. Identical values can stand only once. Entries after “also recorded” stand apart in the source; their conditions may differ. Like-named read-outs stand apart in the source and are kept apart here.

Key:
[1] = Induction of diabetes by streptozotocin; type: in vivo, rat; conditions: three days following STZ injection, 55 mg·kg^−1 i.v., mean ± SEM
From the text: In order to induce diabetes, male Wistar rats (n=28, 303±2.9 g) were divided randomly into diabetic and nondiabetic groups. […] Nondiabetic animals received an equivalent volume of saline. […] Blood glucose and body weight were measure at day 3 following STZ/saline injection and then weekly throughout the study. Diabetes was identified by polydipsia, polyuria and hyperglycemia (>11 mmol·l^−1, Advantage II, Roche Diagnostics, NZ Ltd).

[2] = reported, Kodama et al. 1997; cited from earlier work
[3] = From the text: All animals were fasted overnight prior to surgery but continued to have ad libitum access to deionized water. […] The femoral artery and vein were cannulated with a solid-state blood pressure transducer (Mikrotip™ 1.4F, Millar Instruments, Texas, USA) and a saline filled PE 50 catheter respectively. The ureters were exposed via a midline abdominal incision, cannulated using polyethylene catheters (external diameter 0.9 mm, internal diameter 0.5 mm) and the wound sutured closed. The trachea was cannulated and the animal ventilated at 70-80 breaths·min^−1 with air supplemented with 02 (Pressure Controlled Ventilator, Kent Scientific, Connecticut, USA). The respiratory rate and end-tidal pressure (10-15 cmH2O) were adjusted to maintain end-tidal CO2 at 35-40 mmHg (SC-300 CO2 Monitor, Pryon Corporation, Wisconsin, USA). Body temperature was maintained at 37° C. throughout surgery and the experiment by a heating pad. Estimated fluid loss was replaced with intravenous administration of 154 mmol·l^−1 NaCl solution at a rate of 5 ml·kg^−1·h^−1.
(§1) Following surgery and a 20 min stabilization period, the experimental protocol was started. […] Control animals received an equivalent volume of saline. Urine was collected in 15 min aliquots throughout the experiment in pre-weighed polyethylene epindorf tubes. At the end of the experiment a terminal blood sample was taken by cardiac puncture and the separated serum stored at −80° C. until future analysis. Hearts were removed through a rapid mid-sternal thoracotomy and processed as described below.
Urine and tissue analysis was carried out as follows. Instrumentation: A Perkin Elmer (PE) Model 3100 Atomic Absorption Spectrophotometer equipped with a PE HGA-600 Graphite Furnace and PE AS-60 Furnace Autosampler was used for Cu and Fe determinations in urine. Deuterium background correction was employed. A Cu or Fe hollow-cathode lamp (Perkin Elmer Corporation) was used and operated at either […]. The 324.8 nm atomic line was used for Cu and the 248.3 nm atomic line for Fe. The slit width for both Cu and Fe was 0.7 nm. Pyrolytically coated graphite tubes were used for all analyses. The injection volume was 20 μL. A typical graphite furnace temperature program is shown below:
Urine: Urine was collected in pre-weighed 1.5 ml micro test tubes (eppendorf). After reweighing, the urine specimens were centrifuged and the supernatant diluted 25:1 with 0.02 M 69% Aristar grade HNO3. The sample was stored at 4° C. prior to GF-AAS analysis. If it was necessary to store a sample for a period in excess of 2 weeks, it was frozen and kept at −20° C. Serum: Terminal blood samples were centrifuged and serum treated and stored as per urine until analysis. From the trace metal content of serum from the terminal blood sample and urine collected over the final hour of the experiment, renal clearance was calculated using the following equation: […]
Statistical analyses were carried out as follows. All values are expressed as mean±SEM and P values <0.05 were considered statistically significant. Student's unpaired t-test was initially used to test for weight and glucose differences between the diabetic and control groups. For comparison of responses during drug exposure, statistical analyses were performed using analysis of variance (Statistics for Windows v.6.1, SAS Institute Inc., California, USA). Subsequent statistical analysis was performed using a mixed model repeated measures ANOVA design (see Example 4).

[4] = remark: listed apart in the source
Description: as §1
Mean arterial pressure (MAP), heart rate (HR, derived from the MAP waveform) oxygen saturation (Nonin 8600V Pulse Oximeter, Nonin Medical Inc., Minnesota, USA) and core body temperature, were all continuously monitored throughout the experiment using a PowerLab/16s data acquisition module (AD Instruments, Australia).
Following surgery and a 20 min stabilization period, the experimental protocol was started. […] Urine was collected throughout the experiment in 15 min aliquots.

[5] = normal and diabetic rats, acute i.v. increasing doses
Description: Methods were carried out as follows. Spectrophotometric analysis was conducted as described in Example 2. Cu, Fe and Zn in tissue digests were determined at Hill Laboratories (Hamilton, New Zealand) using either a PE Sciex Elan-6000 or PE Sciex Elan-6100 DRC ICP-MS.
Sample pre-treatment was carried out as follows. Heart: Following removal from the animal, the heart was cleaned of excess tissue, rinsed in buffer to remove excess blood, blotted dry and a wet ventricular weight recorded. Using titanium instruments a segment of left ventricular muscle was dissected and placed in a pre-weighed 5.0 ml polystyrene tube. The sample was freeze-dried overnight to constant weight before 0.45 ml of 69% Aristar grade HNO3 was added. The sample tube was heated in a water bath at 65° C. for 60 minutes. The sample was brought to 4.5 ml with Milli-Q H2O. The resulting solution was diluted 2:1 in order to reduce the HNO3 concentration below the maximum permitted for ICP-MS analysis.

STZ diabetic rats [6] = conditions: LCM and TEM
From the text: Methods were as follows. Following functional analysis, LV histology was studied by laser confocal (LCM; FIG. 29a-d) and transmission electron microscopy (TEM; FIG. 29e-h). For LCM, LV sections were co-stained with phalloidin to visualize actin filaments, and β1-integrin as a marker for the extracellular space. Ding B, et al., “Left ventricular hypertrophy in ascending aortic stenosis in mice: anoikis and the progression to early failure,” Circulation 101:2854-2862 (2000).
For each treatment, 5 sections from each of 3 hearts were examined by both LCM and TEM. For LCM, LV sections were fixed (4% paraformaldehyde, 24 h); embedded (6% agar); vibratomed (120 pm, Campden); stained for f-actin (Phalloidin-488, Molecular Probes) and β1-integrin antibody with a secondary antibody of goat anti-rabbit conjugated to CY5 (1:200; Ding B, et al., “Left ventricular hypertrophy in ascending aortic stenosis in mice: anoikis and the progression to early failure,” Circulation 101:2854-2862 (2000)); and visualised (TCS-SP2, Leica). For TEM, specimens were post-fixed (1:1 v/v 1% w/v 0s0 M 0s0 M PBS); stained (aqueous uranyl acetate (2% w/v, 20 mm) then lead citrate (3 mm)); sectioned (70 nm); and visualized (CM-12, Phillips).

[7] = remark: listed apart in the source
From the text: Methods were as follows. Human studies were approved by institutional ethics and regulatory committees. We measured urinary metal excretion in human males with T2DM or matched non-diabetic controls, baseline information on which is shown in Table 9, in a randomized, double blind, placebo-controlled trial. Males with uncomplicated T2DM (Table 9) underwent 12-d elemental balance studies in a fully residential metabolic unit. All foods and beverages were provided. Total daily intake (method of double diets) and excretion (urinary and fecal) of trace elements (Ca, Mg, Zn, Fe, Cu, Mn, Mo, Cr and Se) were determined (ICP MS).

[8] = T2DM and controls
Description: Total metal balance studies were performed in a residential metabolic unit. Total fecal outputs were collected daily for 12 days, freeze dried, and analyzed by ICP-MS for content of Cu, Fe, Zn, Ca, Mg, Mn, Cr, […] and Se.

[9] = 0.67-670 mg/ml in 0.9% saline, four months at 4° C.
Description: The concentrations of the stock formulations were: 0.67 mg/ml, 6.7 mg/ml, 67 mg/ml, and 670 mg/ml. The formulation was then administered to the rats in doses of 0.1 mg/kg, 1 mg/kg, 10 mg/kg, and 100 mg/kg to the animals respectively.

[10] = 15 days
Description: One sample of the solution was stored in the dark at 4° C. and 21° C. in the dark and a third sample was stored at 21° C. in daylight.
The Ultraviolet-visible spectrum of the formulation was initially measured at day 0 and then at day 15. 20 μl aliquots of sample solutions were taken at day 15. For each aliquot 960 μl of 50 mM TRIS buffer and 20p aliquot of Copper Nitrate standard (100 mM—Orion Research Inc) were added.

diabetic Wistar rats = conditions: six months of treatment
[11] = cited from earlier work
STZ diabetic rats [12] = test: Isolated working heart: cardiac function after 7 weeks oral trientine in drinking water; conditions: for Heart weight / Left Ventricular wall thickness / Left Ventricular wall thickness per BW / Heart weight (g)/BW (g): trientine weeks 7-13
humans with T2DM = test: 6-month randomized double-blind placebo-controlled trial of oral trientine, LV mass by cardiac MRI; conditions: 6 months' trientine therapy
From the text: Subjects (30-70 y) who provided written informed consent were eligible for inclusion if they had: T2DM with HbAu1c>7%; cardiac ejection fraction (echocardiography) ≥45% with evidence of diastolic dysfunction but no regional wall-motion anomalies; no new medications for more than 6 months with no change of β-blocker dose; normal electrocardiogram (sinus rhythm, normal PR Interval, normal T wave and QRS configuration, and isoelectric ST segment); and greater than 90% compliance with single-blinded placebo therapy during a 2-w run-in period. Women were required to be post-menopausal, surgically sterile, or non-lactating and non-pregnant and using adequate contraception.
Before randomization, potentially eligible subjects entered a 4-w single blind run-in phase of two placebo-capsules twice-daily and underwent screening echocardiography, being excluded if regional wall motion abnormalities or impaired LV systolic function (ejection fraction <50%) were detected. In addition, LV diastolic filling was assessed using mitral inflow Doppler (with pre-load reduction) to ensure patients had abnormalities of diastolic filling; no patient with normal mitral filling proceeded to randomisation. […]
At baseline and following 6 months' treatment, LV mass was determined using cardiac MRI, performed in the supine position with the same 1.5 T scanner (Siemens Vision) using a phased array surface coil. […]

CN(N=O)C(=O)N[C@H]1C(O)O[C@H](CO)[C@@H](O)[C@@H]1O (mixture of isomers) [STZ, streptozotocin]
Blood glucose [1]: 25 ± 2 mmol/L

CC(=O)NCCNCCNCCN.Cl [N-acetyl-trientine hydrochloride]
Chelating activity compared with trientine dihydrochloride [2]: significantly lower

NCCNCCNCCN [trientine, N,N′-Bis(2-aminoethyl)-1,2-ethanediamine]
Iron excretion versus equivalent volume of saline ([3]; diabetic and nondiabetic rats): not greater
Total iron excretion versus saline ([3]; diabetic and nondiabetic rats): not different
Urinary Cu excretion versus equivalent volume of saline ([3]; diabetic and nondiabetic rats, all doses 0.1-100 mg/kg i.v.): excreted more Cu
Cu excretion in the urine versus saline ([3]; diabetic rats, 0.1 mg·kg^−1 i.v. (lowest dose)): significantly increased
Copper excretion per gram of body weight, diabetic versus nondiabetic animals ([3]; in response to each dose of drug): significantly greater
Total copper excreted over the entire duration of the experiment versus saline controls ([3]; nondiabetic and diabetic rats): significantly increased
Urine excretion versus equivalent volume of saline ([3]; nondiabetic rats, 100 mg·kg^−1 i.v.): increased
Form of urinary Cu by electron paramagnetic resonance spectroscopy ([3]; urine of drug-treated animals): mainly complexed as trientine-Cu^II
Time to recovery from blood pressure fall ([4]; 100 mg/kg i.v.): 10 min
Effect on blood pressure ([4]; acute i.v. 0.1, 1, 10 and 100 mg/kg): no significant effect
Effect of infusion on MAP and HR ([4]; doses below the highest dose): no effect
Time for MAP to return to pre-dose levels ([4]; highest dose 100 mg/kg i.v.): ≤ 10 min
Maximum decrease in MAP (blood pressure fall) ([4]; highest dose 100 mg/kg i.v., 2 min following administration, 100 mg/kg): 19±4 mmHg and 19+/−4 mmHg
Effect on the copper content of cardiac tissue [5]: no significant effect
Myocardium from trientine-treated nondiabetics (STZ diabetic rats [6]): appeared normal
Trientine-evoked urinary Fe excretion ([7]; T2DM and controls, oral 2.4 g): no corresponding increase
Urinary Cu versus placebo ([7]; both groups (T2DM and controls), day 7, oral 2.4 g): increased
Cu excretion from T2DM versus non-diabetic controls following trientine-treatment ([7]; day 7, 2.4-g oral dose, P<0.05): significantly greater
Effect on fecal outputs of Zn, Fe, Ca, Mg, Mn, Cr, Mb or Se [8]: Neither diabetes nor drug had measurable effects
Stability on storage (efficacy as copper chelator) [9]: remains active as a copper chelator
Stability on storage (efficacy as copper chelator) ([9]; listed as trientine hydrochloride): without appreciable deterioration in efficacy
Change in ability to chelate copper on storage ([10]; 100 mM in deionized water, 4° C. dark, 21° C. dark, 21° C. daylight): no detectable change
Effect of room light on copper chelation ([10]; 100 mM solution, 21° C. in daylight): no detectable detrimental effect
Protection of the heart from development of diabetic damage (cardiomyopathy), as judged by histology (diabetic Wistar rats): appears to protect
Bioavailability of the active species after oral administration [11]: < 10%
Cardiac function versus untreated diabetic controls (STZ diabetic rats [12]; STZ diabetic rats, oral trientine 7 weeks): improved; also recorded: global improvement in cardiac function
Heart weight (STZ diabetic rats [12]; STZ/D7 diabetic rats): 1.18 ± 0.24 g
Left Ventricular wall thickness (STZ diabetic rats [12]; STZ/D7 diabetic rats): 3.79 ± 0.52 mm
Left Ventricular wall thickness per BW (STZ diabetic rats [12]; STZ/D7 diabetic rats): 0.0127 ± 0.0027 mm/g
Heart weight (g)/BW (g) (STZ diabetic rats [12]; STZ/D7 diabetic rats, P < 0.05 vs STZ): 0.0041 ± 0.0005 g/g
Heart weight (STZ diabetic rats [12]; Sham/D7 non-diabetic rats): 1.58 ± 0.05 g
Heart weight (g)/BW (g) (STZ diabetic rats [12]; Sham/D7 non-diabetic rats): 0.0028 ± 0.0001 g/g
Left Ventricular wall thickness (STZ diabetic rats [12]; Sham/D7 non-diabetic rats): 4.03 ± 0.1 mm
Left Ventricular wall thickness per BW (STZ diabetic rats [12]; Sham/D7 non-diabetic rats): 0.0072 ± 0.0003 mm/g
Blood glucose profile versus untreated comparison group (STZ diabetic rats [12]; both treated groups, p = ns): no difference
Indicators for ventricular contraction and relaxation versus untreated diabetic group (STZ diabetic rats [12]; drug treated diabetic group): significantly improved
Trientine treated diabetic hearts still functioning (STZ diabetic rats [12]; increasing after-load, constant pre-load, when 50% of the untreated diabetic hearts had failed): about 90%
Effects on cardiac performance of normal animals (STZ diabetic rats [12]; non-diabetic rats, drug treatment): no adverse effects
Cardiac output (STZ diabetic rats [12]; pre-load increased, after-load held constant, treated diabetic rats): restored to Sham values
Drug-related adverse events (humans with T2DM): No significant drug-related adverse events
